Results as given in patent publication US9428464B2, “Kynurenine-3-monooxygenase inhibitors, pharmaceutical compositions, and methods of use thereof” (CHDI Foundation, Inc., priority 2011, dated 2016).

System: KMO
Assay: KMO activity assay: L-Kynurenine hydroxylation to 3-Hydroxy-Kynurenine, quantified by LC/MS
Assay type: biochemical
Conditions: compound at 10 uM; footnote: some portion of activity of amides may be due to contribution of acid precursor
Description: A generalized procedure for monitoring L-Kynurenine (KYN) hydroxylation to form product 3-Hydroxy-Kynurenine (3OH-KYN) by LC/MS is described below. Product is quantified by multiple reaction monitoring using MS.
A method of monitoring L-Kynurenine (KYN) hydroxylation to form product 3-Hydroxy-Kynurenine (3OH-KYN) by LC/MS is described below. Product is quantified by multiple reaction monitoring.
• Compound: Stock concentrations: 10 mM in 100% DMSO • Enzyme: KMO enzyme prepared at Evotec via mitochondria isolation from CHO-GST HIS KMO cells • Substrate: L-Kynurenine (Sigma: Cat #K3750) • [stock concentration: 10 mM in 100 mM potassium phosphate buffer, pH 7.4]
A method of monitoring L-Kynurenine (KYN) hydroxylation to form 3-Hydroxy-Kynurenine (3OH-KYN) by LC/MS is described. Product is quantified by multiple reaction monitoring (MRM method).

Compared with `CC1(C)CC(C(N)=O)C(C)(C)N1C(=O)c1cc(-c2ccc(Cl)c(Cl)c2)ncn1` (stereo not shown) [1-[6-(3,4-Dichloro-phenyl)-pyrimidine-4-carbonyl]-2,2,5,5-tetramemyl-pyrrolidine-3-carboxylic acid amide], `NC(=O)C1CCN(C(=O)c2cc(-c3ccc(Cl)c(Cl)c3)ncn2)C1` (stereo not shown) [1-[6-(3,4-Dichloro-phenyl)-pyrimidine-4-carbonyl]-pyrrolidine-3-carboxylic acid amide] is higher in “% Inhibition at 10 uM” value: 98.27% for the first, 101.835% for the second.

First: O=C(NC1CC1)C1CCN(C(=O)c2cc(-c3ccc(Cl)c(Cl)c3)ncn2)C1 (stereo not shown) [1-[6-(3,4-Dichloro-phenyl)-pyrimidine-4-carbonyl]-pyrrolidine-3-carboxylic acid cyclopropylamide]
Second: CNC(=O)C1CCN(C(=O)c2cc(-c3ccc(Cl)c(Cl)c3)ncn2)C1 (stereo not shown) [1-[6-(3,4-Dichloro-phenyl)-pyrimidine-4-carbonyl]-pyrrolidine-3-carboxylic acid methylamide]
The “% Inhibition at 10 uM” value of the first is higher: 91.815% for the first, 83.065% for the second.

Going from `O=C(O)C1CCN(C(=O)c2cc(-c3ccc(Cl)c(Cl)c3)ncn2)C1` (stereo not shown) [1-[6-(3,4-dichloro-phenyl)-pyrimidine-4-carbonyl]-pyrrolidine-3-carboxylic acid] to `O=C(c1cc(-c2ccc(Cl)c(Cl)c2)ncn1)N1CCN2C(=O)CCC2C1` (stereo not shown) [2-[6-(3,4-Dichloro-phenyl)-pyrimidine-4-carbonyl]-hexahydro-pyrrolo[1,2-a]pyrazin-6-one], the “% Inhibition at 10 uM” value falls from 101.855% to 97.22%.

First: CON=C(C)c1cc(-c2cccc(Cl)c2)ncn1 [1-[6-(3-Chloro-phenyl)-pyrimidin-4-yl]-ethanone O-methyl-oxime]
Second: CC(=O)c1cc(-c2cccc(Cl)c2)ncn1 [1-[6-(3-Chloro-phenyl)-pyrimidin-4-yl]-ethanone]
The “% Inhibition at 10 uM” value of the first is higher: 102.2% for the first, 97.49% for the second.

First: O=C(CCN1CCCC1)N1CCN(C(=O)c2cc(-c3ccc(Cl)c(Cl)c3)ncn2)CC1 [1-{4-[6-(3,4-Dichloro-phenyl)-pyrimidine-4-carbonyl]-piperazin-1-yl}-3-pyrrolidin-1-yl-propan-1-one]
Second: O=C1CN(C(=O)c2cc(-c3ccc(Cl)c(Cl)c3)ncn2)CCN1CCN1CCCC1 [4-[6-(3,4-Dichloro-phenyl)-pyrimidine-4-carbonyl]-1-(2-pyrrolidin-1-yl-ethyl)-piperazin-2-one]
The “% Inhibition at 10 uM” value of the first is lower: 68.48% for the first, 99.275% for the second.

Going from `CC(=O)N1CCN(C(=O)c2cc(-c3ccc(Cl)c(Cl)c3)ncn2)CC1` [1-{4-[6-(3,4-Dichloro-phenyl)-pyrimidine-4-carbonyl]-piperazin-1-yl}-ethanone] to `CN1CCN(C(=O)c2cc(-c3ccc(Cl)c(Cl)c3)ncn2)CC1=O` [4-[6-(3,4-Dichloro-phenyl)-pyrimidine-4-carbonyl]-1-methyl-piperazin-2-one], the “% Inhibition at 10 uM” value falls from 100.06% to 87.44%.

Compared with `CC(C)COC(=O)c1cc(-c2ccc(Cl)c(Cl)c2)ncn1` [2-methylpropyl 6-(3,4-dichlorophenyl)pyrimidine-4-carboxylate], `CC(C)(O)CNC(=O)c1cc(-c2ccc(Cl)c(Cl)c2)ncn1` [6-(3,4-Dichloro-phenyl)-pyrimidine-4-carboxylic acid (2-hydroxy-2-methyl-propyl)-amide] is lower in “% Inhibition at 10 uM” value: 100% for the first, 57.19% for the second.

Compared with `O=C(NS(=O)(=O)c1cccc(Cl)c1)c1cc(-c2ccc(Cl)c(Cl)c2)ncn1` [3-Chloro-N-[6-(3,4-dichloro-phenyl)-pyrimidine-4-carbonyl]-benzenesulfonamide], `O=C(NS(=O)(=O)c1cccc(Cl)c1)c1cc(-c2cccc(Cl)c2)ncn1` [3-Chloro-N-[6-(3-chloro-phenyl)-pyrimidine-4-carbonyl]-benzenesulfonamide] is lower in “% Inhibition at 10 uM” value: 102.26% for the first, 101.57% for the second.

Going from `O=C1OCc2c1ncnc2-c1ccc(Cl)c(Cl)c1` [4-(3,4-dichloro-phenyl)-5H-furo[3,4-d]pyrimidin-7-one] to `O=C1CN(C(=O)c2cc(-c3ccc(Cl)c(Cl)c3)ncn2)CCN1` [4-[6-(3,4-Dichloro-phenyl)-pyrimidine-4-carbonyl]-piperazin-2-one], the “% Inhibition at 10 uM” value rises from 94% to 101.6%.

First: O=C1CN(C(=O)c2cc(-c3ccc(Cl)c(Cl)c3)ncn2)CCN1CCN1CCOCC1 [4-[6-(3,4-Dichloro-phenyl)-pyrimidine-4-carbonyl]-1-(2-morpholin-4-yl-ethyl)-piperazin-2-one]
Second: O=C1CN(C(=O)c2cc(-c3ccc(Cl)c(Cl)c3)ncn2)CCN1CC1CCOCC1 [4-[6-(3,4-Dichloro-phenyl)-pyrimidine-4-carbonyl]-1-(tetrahydro-pyran-4-ylmethyl)-piperazin-2-one]
The “% Inhibition at 10 uM” value of the first is lower: 98.7% for the first, 99.91% for the second.

Going from `CC1C(=O)NCCN1C(=O)c1cc(-c2ccc(Cl)c(Cl)c2)ncn1` (stereo not shown) [4-[6-(3,4-Dichloro-phenyl)-pyrimidine-4-carbonyl]-3-methyl-piperazin-2-one] to `O=C1CN(C(=O)c2cc(-c3ccc(F)c(Cl)c3)ncn2)CCN1` [4-[6-(3-Chloro-4-fluoro-phenyl)-pyrimidine-4-carbonyl]-piperazin-2-one], the “% Inhibition at 10 uM” value rises from 97.9% to 100.85%.

Compared with `O=C1CN(C(=O)c2cc(-c3ccc(F)c(F)c3)ncn2)CCN1` [4-[6-(3,4-Difluoro-phenyl)-pyrimidine-4-carbonyl]-piperazin-2-one], `O=C1CN(C(=O)c2cc(-c3cccc(Br)c3)ncn2)CCN1` [4-[6-(3-Bromo-phenyl)-pyrimidine-4-carbonyl]-piperazin-2-one] is lower in “% Inhibition at 10 uM” value: 100.995% for the first, 96.625% for the second.

Going from `O=C(N[C@H]1CCCc2ccccc21)c1cc(-c2ccc(Cl)c(Cl)c2)ncn1` [6-(3,4-Dichloro-phenyl)-pyrimidine-4-carboxylic acid (1,2,3,4-tetrahydro-naphthalen-1S-yl)-amide] to `O=C(NC1(c2ccccc2)CC1)c1cc(-c2ccc(Cl)c(Cl)c2)ncn1` [6-(3,4-Dichloro-phenyl)-pyrimidine-4-carboxylic acid (1-phenyl-cyclopropyl)-amide], the “% Inhibition at 10 uM” value rises from 95.92% to 96.68%.

Compared with `O=C(NC1CN2CCC1CC2)c1cc(-c2ccc(Cl)c(Cl)c2)ncn1` (stereo not shown) [6-(3,4-Dichloro-phenyl)-pyrimidine-4-carboxylic acid (1-aza-bicyclo[2.2.2]oct-3-yl)-amide], `CC(NC(=O)c1cc(-c2ccc(Cl)c(Cl)c2)ncn1)C1CCNCC1.Cl` (stereo not shown) [6-(3,4-Dichloro-phenyl)-pyrimidine-4-carboxylic acid (1-piperidin-4-yl-ethyl)-amide hydrochloride salt] is lower in “% Inhibition at 10 uM” value: 100.905% for the first, 85.09% for the second.

Going from `Cl.O=C(NCC12CCN(CC1)CC2)c1cc(-c2ccc(Cl)c(Cl)c2)ncn1` [6-(3,4-Dichloro-phenyl)-pyrimidine-4-carboxylic acid (1-aza-bicyclo[2.2.2]oct-4-ylmethyl)-amide hydrochloride salt] to `Cl.O=C(Nc1cccc(N2CCOCC2)c1)c1cc(-c2ccc(Cl)c(Cl)c2)ncn1` [6-(3,4-Dichloro-phenyl)-pyrimidine-4-carboxylic acid (3-morpholin-4-yl-phenyl)-amide hydrochloride salt], the “% Inhibition at 10 uM” value rises from 65.78% to 99.76%.

Going from `Cn1nc(NC(=O)c2cc(-c3ccc(Cl)c(Cl)c3)ncn2)c2ccccc21` [6-(3,4-Dichloro-phenyl)-pyrimidine-4-carboxylic acid (1-methyl-1H-indazol-3-yl)-amide] to `Cn1ccc(NC(=O)c2cc(-c3ccc(Cl)c(Cl)c3)ncn2)n1` [6-(3,4-Dichloro-phenyl)-pyrimidine-4-carboxylic acid (1-methyl-1H-pyrazol-3-yl)-amide], the “% Inhibition at 10 uM” value rises from 93.95% to 100.05%.

Going from `CC1(C)CC(NC(=O)c2cc(-c3ccc(Cl)c(Cl)c3)ncn2)CC(C)(C)N1.Cl` [6-(3,4-Dichloro-phenyl)-pyrimidine-4-carboxylic acid (2,2,6,6-tetramethyl-piperidin-4-yl)-amide hydrochloride salt] to `CC1(C)CC(NC(=O)c2cc(-c3ccc(Cl)c(Cl)c3)ncn2)CC(C)(C)N1` [6-(3,4-Dichloro-phenyl)-pyrimidine-4-carboxylic acid (2,2,6,6-tetramethyl-piperidin-4-yl)-amide], the “% Inhibition at 10 uM” value rises from 99.59% to 100.11%.

Compared with `Cc1cc(C)c(NC(=O)c2cc(-c3ccc(Cl)c(Cl)c3)ncn2)c(C)c1` [6-(3,4-Dichloro-phenyl)-pyrimidine-4-carboxylic acid (2,4,6-trimethyl-phenyl)-amide], `Cc1ccnc(C)c1NC(=O)c1cc(-c2ccc(Cl)c(Cl)c2)ncn1` [6-(3,4-Dichloro-phenyl)-pyrimidine-4-carboxylic acid (2,4-dimethyl-pyridin-3-yl)-amide] is higher in “% Inhibition at 10 uM” value: 70.84% for the first, 85.37% for the second.

First: CN(CCN)C(=O)c1cc(-c2ccc(Cl)c(Cl)c2)ncn1.O=C(O)C(F)(F)F [6-(3,4-Dichloro-phenyl)-pyrimidine-4-carboxylic acid (2-amino-ethyl)-methyl-amide, trifluoro-acetic acid salt]
Second: Cc1nsc(NC(=O)c2cc(-c3ccc(Cl)c(Cl)c3)ncn2)n1 [6-(3,4-Dichloro-phenyl)-pyrimidine-4-carboxylic acid (3-methyl-[1,2,4]-thiadiazol-5-yl)-amide]
The “% Inhibition at 10 uM” value of the first is lower: 64.52% for the first, 100.16% for the second.

Compared with `Cc1cnc(NC(=O)c2cc(-c3ccc(Cl)c(Cl)c3)ncn2)c(C)n1` [6-(3,4-Dichloro-phenyl)-pyrimidine-4-carboxylic acid (3,5-dimethyl-pyrazin-2-yl)-amide], `O=C(Nc1cccc(N2CCOCC2)c1)c1cc(-c2ccc(Cl)c(Cl)c2)ncn1` [6-(3,4-Dichloro-phenyl)-pyrimidine-4-carboxylic acid (3-morpholin-4-yl-phenyl)-amide] is higher in “% Inhibition at 10 uM” value: 97.84% for the first, 100.15% for the second.
